{"source": "patent US11297837B2", "about": "“Pesticidally activi mixtures comprising anthranilamide compounds” (priority 2016, dated 2022)", "assay_type_in_all_cases": "in vivo", "key": {"[1]": {"system": "boll weevil (Anthonomus grandis)", "assay": "Boll weevil (Anthonomus grandis) control, insect diet with eggs in 24-well microtiter plates", "conditions": "egg and larval mortality visually assessed after 5 days", "experimental": "For evaluating control of boll weevil the test unit consisted of 24-well-microtiter plates containing an insect diet and 20-30 A. grandis eggs.\nThe compounds or mixtures were formulated using a solution containing 75% water and 25% DMSO. Different concentrations of formulated compounds or mixtures were sprayed onto the insect diet at 20 μl, using a custom built micro atomizer, at two replications.\n(§1) For experimental mixtures in these tests identical volumes of both mixing partners at the desired concentrations respectively, were mixed together.\nAfter application, microtiter plates were incubated at 23+1° C., 50+5% RH for 5 days. Egg and larval mortality was then visually assessed."}, "[2]": {"system": "yellow fever mosquito (Aedes aegypti)", "assay": "Yellow fever mosquito (Aedes aegypti) control, larvae in tap water in 96-well microtiter plates", "conditions": "larval mortality visually assessed after 2 days", "experimental": "For evaluating control of yellow fever mosquito (Aedes aegypti) the test unit consisted of 96-well-microtiter plates containing 200 μl of tap water per well and 5-15 freshly hatched A. aegypti larvae.\nThe compounds or mixtures were formulated using a solution containing 75% water and 25% DMSO. Different concentrations of formulated compounds or mixtures were sprayed onto the insect diet at 2.5 μl, using a custom built micro atomizer, at two replications.\nas §1\nAfter application, microtiter plates were incubated at 28±1° C., 80±5% RH for 2 days. Larval mortality was then visually assessed."}, "[3]": {"system": "green peach aphid (Myzus persicae)", "assay": "Green peach aphid (Myzus persicae) control through systemic means, artificial diet in 96-well microtiter plates", "conditions": "2 ppm; aphid mortality and fecundity visually assessed after 3 days", "source_text": "For evaluating control of green peach aphid (Myzus persicae) through systemic means the test unit consisted of 96-well-microtiter plates containing liquid artificial diet under an artificial membrane.\nDifferent concentrations of formulated compounds or mixtures were pipetted into the aphid diet, using a custom built pipetter, at two replications.\nas §1\nAfter application, 5-8 adult aphids were placed on the artificial membrane inside the microtiter plate wells. […] Aphid mortality and fecundity was then visually assessed."}}}
{"smiles": "Cn1nc(C(F)(F)C(F)(F)F)c(C(F)(F)F)c1C(=O)Nc1ccc(Cl)c(C(=O)NCc2ccccc2)c1", "note": "[II-1, N-[4-Chloro-3-[[(phenylmethyl)amino]carbonyl]phenyl]-1-methyl-3-(1,1,2,2,2-pentafluoroethyl)-4-(trifluoromethyl)-1H-pyrazole-5-carboxamide]", "values": [{"measurement": "Average Control %", "setting": "[1]; 20 ppm", "value": 0, "unit": "%"}, {"measurement": "Average Control %", "setting": "[2]; 20 ppm", "value": 50, "unit": "%"}]}
{"smiles": "CC(NC(=O)c1cc(Cl)cc(Br)c1NC(=O)c1cc(Br)nn1-c1ncccc1Cl)C1CC1", "note": "(centres unmarked) [I.2, cyclaniliprole, reference compound]", "values": [{"measurement": "Average Control %", "setting": "[1]; 0.08 ppm", "value": 0, "unit": "%"}, {"measurement": "Average Control %", "setting": "[2]; 2 ppm", "value": 0, "unit": "%"}]}
{"smiles": "CCN1OC[C@@H](NC(=O)c2ccc(C3=NOC(c4cc(Cl)cc(Cl)c4)(C(F)(F)F)C3)cc2C)C1=O", "note": "(stereo partly drawn) [II-4.1, 4-[5-(3,5-dichlorophenyl)-5-(trifluoromethyl)-4H-isoxazol-3-yl]-N-[(4R)-2-ethyl-3-oxo-isoxazolidin-4-yl]-2-methyl-benzamide]", "values": [{"measurement": "Average Control %", "setting": "[3]", "value": 0, "unit": "%"}]}
